Here are results for one compound from US20080051438A1, “Preventive/Therapeutic Compositions Useful for Treating Cardiovascular Diseases” (priority 2006, published 2008).

The subject of the assay is hypertensive patients. The experiment in a line: Special investigation of combined use of cilnidipine and ARB: degree of the blood pressure controls judged by the doctor (efficacy ratio). Type of assay: in vivo, human. Details: concentration or dose not given beside the values. On the procedure: A special investigation was conducted in various medical centers, compiled, and analyzed to evaluate the safety and availability of the combined use of cilnidipine and at least one angiotensin II receptor blocker.
The subjects of the investigation were hypertensive patients which were adapted to cilnidipine. Combined administration of cilnidipine and ARB was started for the treatment of hypertension in these patients.
A prospective continuous investigation method was conducted. Such a method is continuously conducted with the registered cases with the combined administration of cilnidipine (Atelec®) and ARB, until the number of cases reaches the contracted cases for each center.
Regarding the administration method of cilnidipine, 5 to 10 mg of cilnidipine was orally administered after breakfast once a day. Meanwhile, the amount may increase or decrease depending on patient's age, symptoms, or the like. When the effect is insufficient, the amount can be increased to 20 mg once a day. The dosing period of cilnidipine was set to 12 weeks in principle.
The following items were tracked during the investigation: patient's background (sex), existence or nonexistence of previous therapeutic agents and the content thereof, targeted blood pressure (systolic BP/diastolic BP), the conditions of administration of cilnidipine and ARB, antihypertensives used in combination (those other than cilnidipine or ARB), clinical course (systolic BP/diastolic BP/heart rate), and occurrence of side-effects. As for the availability of the combined administration, in the 12th week after starting the combined administration, the doctor in attendance judged the degree of the blood pressure controls on a three-point scale of “well-controlled”, “nearly well-controlled” and “poorly-controlled”, referring to the changes in the systolic and diastolic BP. As for the safety and availability analysis for each patient background, Fisher's exact probability test or the X^2 test was used. As for the blood pressure and heart rate, the average value and the standard deviation were calculated for the subjects before the combined administration (within 4 weeks before starting the combined administration), and data after starting the combined administration were determined on each observation day, and analysis was conducted by using a paired t-test. The test was conducted as the two-sided test and less than 5% of the risk rate was regarded as significant. Furthermore, side-effects were compiled based on the naming of preferred terms (PT) of MedDRA/J ver 8.0.
As the index of availability, in the 12th week after starting the combined administration, the doctor in attendance judged the degree of the blood pressure controls on a three-point scale of “well-controlled”, “nearly well-controlled” and “poorly-controlled”.
(1) Among the 2919 cases in the availability analysis, 42 cases in which the degree of the blood pressure controls was not described, and 168 cases which could not be judged, were excluded. In the other 2709 cases, the ratio of number of cases judged as “nearly well-controlled” or higher was calculated as the efficacy ratio. Accordingly, the efficacy ratio of the subject cases in the availability analysis was 84.8% (2298 cases/2709 cases).

Turning to `COCCOC(=O)C1=C(C)NC(C)=C(C(=O)OC/C=C/c2ccccc2)C1c1cccc([N+](=O)[O-])c1` (racemic) [cilnidipine, 2-methoxyethyl-3-phenyl-2(E)-propenyl(±)-1,4-dihydro-2,6-dimethyl-4-(3-nitrophenyl)-3,5-pyridinedicarboxylate], the “efficacy ratio (cases judged nearly well-controlled or higher)” value by setting is: (all subject cases in the availability analysis, 12th week after starting cilnidipine + ARB, 2298 cases/2709 cases) 84.8%; (cases on ARB alone, cilnidipine additionally administered (antihypertensives ARB and cilnidipine only)) 86.4%.
